Experimental data: patent US20050164182A1, “Nucleotide analogues” (priority 2001, published 2005)
“Also recorded” adds a separate entry of the source.

Tests used:
[1] = target: T1, subtilisin (Subtilopeptidase A, type VIII) (Bacillus licheniformis, UniProt P00780); test: Protease mediated cleavage of FamHex-GGL-β-A-2′dU, HPLC and MALDI-TOF analysis; format: biochemical; conditions: 2 hours at 37° C., pH 7.5
T1 construct: purchased Sigma Chemical Co. UK
T1 sequence (P00780 106-379): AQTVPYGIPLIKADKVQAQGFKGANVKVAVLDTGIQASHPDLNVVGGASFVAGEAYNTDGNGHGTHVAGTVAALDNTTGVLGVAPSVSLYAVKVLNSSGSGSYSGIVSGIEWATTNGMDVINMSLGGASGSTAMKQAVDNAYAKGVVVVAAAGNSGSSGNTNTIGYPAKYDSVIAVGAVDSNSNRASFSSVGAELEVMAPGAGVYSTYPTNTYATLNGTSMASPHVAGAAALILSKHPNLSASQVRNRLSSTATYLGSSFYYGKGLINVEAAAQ
Description: A 10 μg aliquot of the substrate FAMHEX-GGL-β-A 2′dU (compound 6 above) was dissolved in 0.1M sodium acetate buffer pH 7.5 containing 5 mM calcium acetate. The substrate solution was digested at 37° C. for 2 hours in 200 μl in the presence of 0.5 units of subtilisin (Subtilopeptidase A, type VIII, Sigma Chemical Co. UK).
The resulting digest was ultrafiltered using a Microcon YM10 Concentrator (Milipore Ltd., UK) and the filtrate analysed by HPLC (Gilson 170, Gilson, UK) on a Sephasil™ peptide C-18 column (Amersham Biosicences, UK). […] These eluted at 29.8 (I), 32.6 (II), 26.7 (III) and 37.1 (IV) minutes on an acetonitrile gradient of 50% to 70%. The peaks were collected and analysed by MALDI-TOF mass spectrometry (Bruker Biflex II, Brucker, Germany). A matrix of 10 mg/ml 3-hydroxycinnamic acid in acetonitrile and 1% TFA was used for the analysis. The mass spectrometer was calibrated with 100 mM Bradykinin 1-7 (Sigma Chemical Co., UK).

[2] = test system: Thermosequenase; test: Primer extension reactions: incorporation of fluorescently labelled deoxynucleotide triphosphates by DNA polymerase; format: biochemical; conditions: number of consecutive fluor-labelled nucleotides added; templates with 2, 3 or 8 consecutive A residues; 48° C. for 45 minutes

predominant product with templates 3, 4 and 5 [2]	Substance	cleavage of the linker by subtilisin [1]	site of hydrolysis by subtilisin ([1]; molecular ion of 717 in peak II)
	5-N-[N-(6-Fluorescein-5(and 6)carboxamidohexanoyl)-Gly-Gly-Leu-β-alanyl]-propargylamino-2′-deoxyuridine [Compound 6]	consistent with the cleavage of the linker by the subtilisin enzyme; also recorded: readily digested by subtilisin	at the peptide bond on the carboxyl side of the leucine residue; also recorded: cleaves at the leucine residue
One addition	Alexa Fluor 568-5-dUTP [Alexa 568-5-dUTP]		
One addition	Alexa Fluor 594-5-dUTP [Alexa 594-5-dUTP]		
One addition, with minor two additions	Cy5 dUTP		
One addition, with minor two additions	Cy3 dUTP		

Substance	predominant product with templates 3, 4 and 5 [2]	cleavage of the linker by subtilisin [1]	site of hydrolysis by subtilisin ([1]; molecular ion of 717 in peak II)
Lissamine-5-dUTP	One addition, with very slight two additions		
Texas Red-5-dUTP	One addition, with very slight two additions		
